Results reported in patent US4918012A (Kyowa Hakko Kogyo Co., Ltd., priority 1986, dated 1990).

Columns and labels:
strain CA28-50A = experiment: Effect of compound added to growth medium on carnitinamide hydrolase formation (Example 9); assay type: cell-based, Pseudomonas sp. CA28-50A; details: 26° C.; for Conversion Rate of L-carnitinamide into L-carnitine: cells reacted with 10% DL-carnitinamide, 96 hours; for Growth (optical density at 660, 1.00 cm, 20 times dilution): strain CA28-50A, 3 days
Description: In a medium consisting of 1% glucose, 0.5% peptone, 0.75% K2 HPO4, 0.25% KH2 PO4, 0.01% MgSO4.7H2 O, 0.001% FeSO4.7H2 O and one of the compounds shown in Table 6 below and the balance water (pH 7.2) was inoculated the strain CA28-50A and shake cultured at 26° C. for 3 days. Cells collected from the culture broth by centrifugation were suspended in a reaction solution containing 10% DL-carnitinamide in the same density as that in the medium for growth culture, and the resulting suspension was allowed to stand at 26° C. for 96 hours for the reaction.

[1] = system: L-carnitinamide hydrolase; experiment: Inhibitors of L-carnitinamide hydrolase (metal ions, EDTA, 2-mercaptoethanol); assay type: biochemical, Pseudomonas sp.
Description: The determination of the activity of carnitinamide hydrolase can be carried out by measuring the amount of carnitine generated by, for example, Pearson's method (D. J. Pearson et al., Method in Enzymology, Vol. 14, 612 (1969)). When there is no inhibitory substances present, the determination of the activity of the enzyme can also be carried out by measuring the amount of ammonia generated by the reaction.

SMILES	Inhibition of the enzyme ([1]; at 10 mM)	Inhibition of the enzyme ([1]; concentration of 1 mM)	also measured
C[N+](C)(C)CC(O)CC(N)=O (racemic) [DL-Carnitinamide]			Conversion Rate of L-carnitinamide into L-carnitine (strain CA28-50A; compound 0.5% in growth medium): 88.7%; Growth (optical density at 660, 1.00 cm, 20 times dilution) (strain CA28-50A; compound 0.5% in growth medium): 0.27
C[N+](C)(C)CC(O)CC(=O)[O-] (racemic) [DL-Carnitine]			Conversion Rate of L-carnitinamide into L-carnitine (strain CA28-50A; compound 0.5% in growth medium): 90.0%; Growth (optical density at 660, 1.00 cm, 20 times dilution) (strain CA28-50A; compound 0.5% in growth medium): 0.27
OCCS [2-mercaptoethanol]	do not show inhibition	do not show inhibition	
[Ag+] [Ag ion]	remarkable inhibition	slight inhibition	
Cl.N [NH4 Cl]			Conversion Rate of L-carnitinamide into L-carnitine (strain CA28-50A; compound 0.1% in growth medium): 2.9%; Growth (optical density at 660, 1.00 cm, 20 times dilution) (strain CA28-50A; compound 0.1% in growth medium): 0.23
[Ni+2] [Ni]	slight inhibition	no inhibition	
C[N+](C)(C)CCCC(=O)[O-] [γ-Butyrobetaine]			Conversion Rate of L-carnitinamide into L-carnitine (strain CA28-50A; compound 0.5% in growth medium): 12.3%; Growth (optical density at 660, 1.00 cm, 20 times dilution) (strain CA28-50A; compound 0.5% in growth medium): 0.26

Second part, led by results:

Inhibition of the enzyme ([1]; at 10 mM)	Inhibition of the enzyme ([1]; concentration of 1 mM)	SMILES	also measured
	no inhibition	[Co+2] [Co]	
do not show inhibition	do not show inhibition	O=C(O)CN(CCN(CC(=O)O)CC(=O)O)CC(=O)O [EDTA]	
	no inhibition	[Mg+2] [Mg]	
	no inhibition	[Mn+2] [Mn]	
	no inhibition	[Zn+2] [Zn]	
